Literature values as cited in patent CN104013603A, “一种烟碱缓释贴剂” (Shanghai Tobacco Group Co Ltd, priority 2014, dated 2014).

Key:
[1] = background statement
[2] = background statement; remark: listed apart in the source

SMILES: CN1CCC[C@H]1c1cccnc1 [尼古丁, (S)-3-(1-Methyl-2-pyrroli-dinyl)pyridine]
- solubility [1]: 可溶于水、乙醇、氯仿、乙醚、油类
- penetration into skin [2]: 可渗入皮肤
